Reference: the supplement of paper PMC13380429

Experiments:
Details in all cases: 72 h
Calu-3 [1] = assay: drug sensitivity score (DSS) for viability; higher = more toxic; extreme values may be limits of the assay
HepG2 [2] = assay: as above
U2OS [3] = assay: as above
Vero E6 [4] = assay: as above
Caco-2 [5] = assay: cell viability relative to DMSO; higher = less toxic
Calu-3 [6] = assay: as above
HepG2 [7] = assay: as above
U2OS [8] = assay: as above
Vero E6 [9] = assay: as above
Caco-2 [10] = assay: relative viability EC50 (midpoint between 100% and the lowest measured viability); higher = less toxic
Calu-3 [11] = assay: as above
U2OS [12] = assay: as above
Vero E6 [13] = assay: as above
Caco-2 [14] = assay: drug sensitivity score (DSS) for viability; higher = more toxic; extreme values may be limits of the assay

Structure (SMILES) | drug sensitivity score (Calu-3 [1]) | drug sensitivity score (HepG2 [2]) | drug sensitivity score (U2OS [3]) | drug sensitivity score (Vero E6 [4]) | cell viability (Caco-2 [5]; 1 nM) [%] | cell viability (Caco-2 [5]; 10 nM) [%] | cell viability (Caco-2 [5]; 100 nM) [%] | cell viability (Caco-2 [5]; 1000 nM) [%] | cell viability (Caco-2 [5]; 10000 nM) [%] | cell viability (Calu-3 [6]; 1 nM) [%] | cell viability (Calu-3 [6]; 10 nM) [%] | cell viability (Calu-3 [6]; 100 nM) [%] | cell viability (Calu-3 [6]; 1000 nM) [%] | cell viability (Calu-3 [6]; 10000 nM) [%] | cell viability (HepG2 [7]; 1 nM) [%] | cell viability (HepG2 [7]; 10 nM) [%] | cell viability (HepG2 [7]; 100 nM) [%] | cell viability (HepG2 [7]; 1000 nM) [%] | cell viability (HepG2 [7]; 10000 nM) [%] | cell viability (U2OS [8]; 1 nM) [%] | cell viability (U2OS [8]; 10 nM) [%] | cell viability (U2OS [8]; 100 nM) [%] | cell viability (U2OS [8]; 1000 nM) [%] | cell viability (U2OS [8]; 10000 nM) [%] | cell viability (Vero E6 [9]; 1 nM) [%] | cell viability (Vero E6 [9]; 10 nM) [%] | cell viability (Vero E6 [9]; 100 nM) [%] | cell viability (Vero E6 [9]; 1000 nM) [%] | cell viability (Vero E6 [9]; 10000 nM) [%] | relative viability EC50 (Caco-2 [10]) [µM] | relative viability EC50 (Calu-3 [11]) [µM] | relative viability EC50 (U2OS [12]) [µM] | relative viability EC50 (Vero E6 [13]) [µM] | drug sensitivity score (Caco-2 [14])
COc1c(N2C[C@@H]3CCCN[C@@H]3C2)c(F)cc2c(=O)c(C(=O)O)cn(C3CC3)c12 [moxifloxacin] | 0 | 0 | 0 | 0 | – | – | – | – | – | – | – | – | – | – | – | – | – | – | – | – | – | – | – | – | – | – | – | – | – | – | – | – | – | –
CC(=O)[C@@]12O[C@](C)(c3ccccc3)O[C@@H]1C[C@H]1[C@@H]3CCC4=CC(=O)CC[C@]4(C)[C@H]3CC[C@@]12C [algestone-acetophenide] | 0 | 1 | 0 | 0 | 104 | 94.2 | 97.5 | 100 | 78.5 | 105 | 100 | 96.3 | 109 | 86.4 | 98.3 | 108 | 102 | 103 | 71.7 | 99.7 | 95.2 | 99.3 | 98.4 | 91.8 | 101 | 96.6 | 87.5 | 92.3 | 102 | > 10 | > 10 | > 10 | > 10 | 0.7
Nc1ncn([C@H]2C[C@H](O)[C@@H](CO)O2)c(=O)n1 [decitabine] | 0 | 6.6 | 0 | 0 | 97.2 | 88.3 | 82.2 | 89.4 | 88.4 | 109 | 105 | 101 | 107 | 93.5 | 95.8 | 98.6 | 82.6 | 71.9 | 69.8 | 102 | 102 | 99.9 | 100 | 101 | 103 | 102 | 95.1 | 93 | 93.2 | > 10 | > 10 | > 10 | > 10 | 1.7
Nc1ccc(S(=O)(=O)Nc2ccccn2)cc1 [sulfapyridine] | 0 | 0 | 0 | 0 | – | – | – | – | – | – | – | – | – | – | – | – | – | – | – | – | – | – | – | – | – | – | – | – | – | – | – | – | – | –
Nc1nc(NCCNc2ncc(-n3ccnc3)c(-c3ccc(Cl)cc3Cl)n2)ccc1[N+](=O)[O-] | 0 | – | 0 | 0 | 96.7 | 99.9 | 100 | 111 | 111 | 96.3 | 98.1 | 104 | 111 | 112 | – | – | – | – | – | 96.9 | 101 | 96.7 | 103 | 110 | 96.1 | 98 | 94.2 | 97.1 | 106 | > 10 | > 10 | > 10 | > 10 | 0
